Data from US9079854B2 (priority 2007, dated 2015).

Key:
[1] = biological target: T1, human CB1 (hCB1) receptor (Homo sapiens, UniProt P21554); experiment: CB1 binding assay, competitive binding of [3H]CP 55940; settings: at 1 μM; specific binding of [3H]-CP55940; CHO membranes
T1 construct: expressed in transfected cells; host or cells: CHO (Chinese hamster ovary) cells, membranes
Procedure: Cell membrane homogenates (25 μg protein) are incubated for 120 min at 37° C. with 0.5 nM [^3H]CP 55940 (the reference standard [Rinaldi-Carmona, 1996 #1320]) in the absence or presence of the test compound in a buffer containing 50 mM Tris HCl (pH 7.4), 5 mM MgCl2, 2.5 mM EDTA, and 0.3% bovine serum albumin (BSA). […]
(§1) […] [^3H]-CP55940 at a concentration of 0.5 nM and [^3H]-WIN55212 at a concentration of 0.8 nM were used as radioligands for hCB1 and hCB2 assays, respectively. The results are expressed as a percent inhibition of control specific binding. Compounds which displaced the radioligand by more than 50% for either hCB1 or hCB2 receptors were arbitrary chosen for functional activity determination.

[2] = biological target: T2, human CB2 (hCB2) receptor (Homo sapiens, UniProt P34972); experiment: CB2 binding assay, competitive binding of [3H]WIN 55212-2; settings: read-out: % inhibition hCB2 receptor, at 1 μM; specific binding of [3H]-WIN55212-2; CHO membranes
T2 construct: expressed in transfected cells; host or cells: CHO (Chinese hamster ovary) cells, membranes
T2 sequence (P34972 whole entry): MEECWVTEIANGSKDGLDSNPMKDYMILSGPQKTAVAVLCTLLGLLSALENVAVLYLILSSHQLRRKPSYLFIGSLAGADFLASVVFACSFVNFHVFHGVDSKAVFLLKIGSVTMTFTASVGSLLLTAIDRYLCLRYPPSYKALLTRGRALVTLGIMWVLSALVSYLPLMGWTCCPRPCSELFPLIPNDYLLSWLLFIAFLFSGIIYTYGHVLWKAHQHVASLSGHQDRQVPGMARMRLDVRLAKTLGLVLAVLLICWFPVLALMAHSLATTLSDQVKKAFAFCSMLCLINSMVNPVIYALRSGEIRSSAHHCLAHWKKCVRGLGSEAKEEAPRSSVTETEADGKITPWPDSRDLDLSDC
Procedure: Cell membrane homogenates (15 μg protein) are incubated for 120 min at 37° C. with 0.8 nM [^3H]WIN 55212-2 (the reference standard [Munro, 1993 #1321]) in the absence or presence of the test compound in a buffer containing 50 mM HEPES/Tris HCL (pH 7.4), 5 mM MgCl2, 2.5 mM EGTA, and 0.1% BSA. Nonspecific binding is determined in the presence of 10 μM WIN 55212-2. After being incubated, the samples are filtered rapidly under vacuum through glass fiber filters (GF/B; Packard) presoaked with 0.3% PEI and rinsed several times with ice-cold buffer containing 50 mM Tris HCl (pH 7.4) and 0.5% BSA using a 96-sample cell harvester (Unifilter; Packard). The filters are dried then counted for radioactivity in a scintillation counter (Topcount; Packard) using a scintillation cocktail (Microscint 0; Packard). The results are expressed as a percentage of the inhibition of the control radioligand-specific binding. The reference standard compounds are tested in each experiment at several concentrations to obtain a competition curve from which its IC50 is calculated.
as §1

hCB2 receptor = biological target: T3, hCB2 receptor (Homo sapiens, UniProt P34972); experiment: CB2 functional assay, [35S]GTP-γ-S binding; format: biochemical; settings: for EC50 / Emax: Table 9; for EC50: mean of two determinations, read-out: [35S]GTP-γ-S hCB2 EC50 (nM ± SEM); for Emax: relative to the efficacy of CP 55,940
T3 construct: purchased ES-111-MG; host or cells: CHO membrane extracts
T3 sequence (P34972 whole entry): as above
Procedure: (§2) A dose response curve was generated at eight concentrations in duplicate on CB1 and CB2 in light of reference agonists.
(§3) Membranes (CB1, ES-110-MG or CB2, ES-111-MG) are mixed with GDP (volume:volume) and incubated for at least […] on ice. In parallel, […] are mixed with the beads (volume:volume) just before starting the reaction. The following reagents are successively added in the wells of an Optiplate: 50 μl of ligand, 20 μl of the membranes:GDP mix, 10 μl of assay buffer for agonist testing and 20 μl of the […]: beads mix. The plates are covered with a topseal, shaken on an orbital shaker for 2 min, and then incubated between 30 to 60 min at room temperature. Then the plates are centrifuged for 10 min at 2000 rpm, incubated at room temperature between 1 to 4 hours and counted for 1 min with a PerkinElmer TopCount reader.
(§4) Functional activity for acyl hydrazone was evaluated using [^35S]GTP-γ-S assay in CHO membrane extracts expressing recombinant hCB1 receptor or hCB2 receptor. The assay relies on the binding of [^35S]GTP-γ-S, a radiolabeled nonhydrolyzable GTP analogue, to the G protein upon binding of an agonist of the G-protein-coupled receptor. In this system, agonists stimulate [^35S]GTP-γ-S binding whereas neutral antagonist have no effect and inverse agonists decrease [^35S]GTP-γ-S basal binding.
(§5) CB1 and CB2 assay data are presented as the mean of two determinations. […] For replicate determinations, the maximum variability tolerated in the test was of ±20% around the average of the replicates.

CB1 = CB1 (Homo sapiens, UniProt P21554); experiment: CB1 functional assay, [35S]GTP-γ-S binding; format: biochemical; set-up: purchased ES-110-MG; host or cells: CHO membrane extracts; settings: for EC50 / Emax: Table 9; for EC50: mean of two determinations, read-out: [35S]GTP-γ-S hCB1 EC50 (nM ± SEM); for Emax: relative to the efficacy of CP 55,940
CB1, sequence (P21554 whole entry): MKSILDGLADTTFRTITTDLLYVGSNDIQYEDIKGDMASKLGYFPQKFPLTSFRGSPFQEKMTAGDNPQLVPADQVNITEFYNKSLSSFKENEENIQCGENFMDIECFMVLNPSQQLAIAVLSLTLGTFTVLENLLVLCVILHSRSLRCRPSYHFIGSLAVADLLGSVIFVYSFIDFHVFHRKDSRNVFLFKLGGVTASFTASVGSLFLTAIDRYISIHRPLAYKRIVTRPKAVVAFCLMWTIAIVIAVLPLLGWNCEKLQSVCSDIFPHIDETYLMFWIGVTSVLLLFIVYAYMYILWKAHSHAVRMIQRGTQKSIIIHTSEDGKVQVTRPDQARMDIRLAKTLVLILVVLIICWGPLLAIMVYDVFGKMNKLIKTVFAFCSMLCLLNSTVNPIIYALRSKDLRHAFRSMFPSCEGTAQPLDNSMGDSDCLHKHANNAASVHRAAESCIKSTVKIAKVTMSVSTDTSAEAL
Procedure: as §2, §3, §4, §5

T1 sequence (P21554 whole entry): as above

Structure (SMILES)	inhibition at 1 µM [1] [%]	inhibition at 1 µM [2] [%]	functional activity on CB2 receptor (in words) (hCB2 receptor; [35S]GTP-γ-S)	Emax at 3 µM (hCB2 receptor; read-out: [35S]GTP-γ-S hCB2 Emax (%), Table 9 footnote a: Efficacy determined at 3 μM, relative to CP 55,940) [%]	functional activity on CB1 receptor (in words) (CB1; [35S]GTP-γ-S)	EC50 (hCB2 receptor) [nM]	Emax (hCB2 receptor) [%]	EC50 (CB1) [nM]	Emax (CB1) [%]	Emax at 3 µM (CB1; read-out: [35S]GTP-γ-S hCB1 Emax (%), Table 9 footnote a: Efficacy determined at 3 μM, relative to CP 55,940) [%]
CCCCCCN1C(=O)/C(=N/NC(=O)OC(C)(C)C)c2ccccc21 [Example 15, tert-butyl (2E)-2-(1-hexyl-2-oxo-1,2-dihydro-3H-indol-3-ylidene)hydrazinecarboxylate]	75 ± 0.1	27 ± 3.7	failed to exhibited functional activity	23.4	failed to exhibited functional activity					
CCCCCCN1C(=O)/C(=N\NC(=O)c2ccc(OC)cc2)c2ccccc21 [Example 17, N′-[(3Z)-1-hexyl-2-oxo-1,2-dihydro-3H-indol-3-ylidene]-4-methoxybenzohydrazide]	81.7 ± 1.1	56 ± 5.7				143 ± 2.6	49.5	852 ± 1.2	71	
CCCCN1C(=O)/C(=N\NC(=O)c2ccccc2)c2ccccc21 [Example 22, N′-[(3Z)-1-(1-butyl)-2-oxo-1,2-dihydro-3H-indol-3-ylidene]benzohydrazide]	86 ± 2.4	70 ± 2.4				40.1 ± 1.5	98.9			69
CCCCCN1C(=O)/C(=N\NC(=O)c2ccccc2)c2ccccc21 [Example 23, N′-[(3Z)-1-(1-pentyl)-2-oxo-1,2-dihydro-3H-indol-3-ylidene]benzohydrazide]	95 ± 0.9	80 ± 0.9				240 ± 3.2	68.5	314.1 ± 1.6	95.1	
O=C(N/N=C1\C(=O)N(CC2CCCCC2)c2ccccc21)c1ccccc1 [Example 25, N′-[(3Z)-1-(cyclohexylmethyl)-2-oxo-1,2-dihydro-3H-indol-3-ylidene]benzohydrazide]	99 ± 1.1	100 ± 0.4				9.8 ± 1.1	65.7	62.3 ± 1.3	99	
O=C(N/N=C1\C(=O)N(Cc2ccc(Cl)cc2)c2ccccc21)c1ccccc1 [Example 26, N′-[(3Z)-1-(4-chlorobenzyl)-2-oxo-1,2-dihydro-3H-indol-3-ylidene]benzohydrazide]	94.5 ± 0.8	22 ± 1.6				131 ± 1.7	39.8	895.6 ± 1.2	72	
